Laboratory results reported in BigSolDB 2.1.

CCc1nnc(NC(=O)c2ccc([N+](=O)[O-])cc2)s1
solubility (mole fraction)
Conditions | 288.15 K | 293.15 K | 298.15 K | 303.15 K | 308.15 K | 313.15 K | 318.15 K
in ethanol | 2.81e-05 | 3.17e-05 | 3.91e-05 | 4.87e-05 | 5.95e-05 | 7.34e-05 | 8.87e-05
in n-hexane | 6.2e-06 | 7.4e-06 | 9.5e-06 | 1.19e-05 | 1.44e-05 | 1.79e-05 | 2.11e-05
in n-octanol | 4.34e-05 | 5.22e-05 | 6.52e-05 | 8.06e-05 | 9.61e-05 | 0.000118 | 0.00014
